pIC50: −log10 of the molar value.
Biological target: T1, human TLR7 (Homo sapiens, UniProt Q9NYK1)
T1 construct: host or cells: HEK293 (HEK-Blue hTLR7)
T1 sequence (Q9NYK1 27-1049): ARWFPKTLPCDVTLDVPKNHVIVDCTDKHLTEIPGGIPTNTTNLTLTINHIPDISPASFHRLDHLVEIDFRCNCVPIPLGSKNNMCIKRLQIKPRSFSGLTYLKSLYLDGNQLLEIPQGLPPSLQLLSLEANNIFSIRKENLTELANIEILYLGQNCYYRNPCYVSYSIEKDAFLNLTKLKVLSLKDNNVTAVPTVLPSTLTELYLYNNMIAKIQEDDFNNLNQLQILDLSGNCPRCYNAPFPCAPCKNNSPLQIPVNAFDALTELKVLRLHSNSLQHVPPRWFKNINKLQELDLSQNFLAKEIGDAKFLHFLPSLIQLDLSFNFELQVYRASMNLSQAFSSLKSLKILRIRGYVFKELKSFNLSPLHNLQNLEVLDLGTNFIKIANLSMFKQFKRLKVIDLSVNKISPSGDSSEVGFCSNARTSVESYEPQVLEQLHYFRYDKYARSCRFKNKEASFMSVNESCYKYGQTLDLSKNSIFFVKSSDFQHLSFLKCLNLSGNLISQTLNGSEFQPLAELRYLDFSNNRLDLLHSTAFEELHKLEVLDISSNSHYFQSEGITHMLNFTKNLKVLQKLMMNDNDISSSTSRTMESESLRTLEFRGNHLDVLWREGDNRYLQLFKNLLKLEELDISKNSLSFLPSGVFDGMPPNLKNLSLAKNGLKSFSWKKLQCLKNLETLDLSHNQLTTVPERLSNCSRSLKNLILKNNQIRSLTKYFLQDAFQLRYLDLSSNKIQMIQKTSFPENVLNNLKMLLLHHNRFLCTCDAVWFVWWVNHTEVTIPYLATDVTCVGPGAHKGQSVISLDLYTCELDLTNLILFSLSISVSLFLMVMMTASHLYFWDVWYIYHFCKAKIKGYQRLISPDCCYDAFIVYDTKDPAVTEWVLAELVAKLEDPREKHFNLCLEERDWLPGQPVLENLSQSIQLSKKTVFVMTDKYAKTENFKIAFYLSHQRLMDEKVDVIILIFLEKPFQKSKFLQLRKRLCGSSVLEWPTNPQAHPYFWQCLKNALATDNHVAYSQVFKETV
Experiment: HEK293-Blue-hTLR-7 cells assay
Format: cell-based
Conditions: HEK293-Blue-hTLR7 cells, R848 stimulation, 20 hrs, SEAP reporter; read-out: HEK/hTLR7 IC50
Source text: HEK293-Blue-hTLR-7 Cells Assay:
A stable HEK293-Blue-hTLR-7 cell line was purchased from InvivoGen (Cat. #: hkb-htlr7, San Diego, Calif., USA). These cells were originally designed for studying the stimulation of human TLR7 by monitoring the activation of NF-κB. A SEAP (secreted embryonic alkaline phosphatase) reporter gene was placed under the control of the IFN-β minimal promoter fused to five NF-κB and AP-1-binding sites. The SEAP was induced by activating NF-κB and AP-1 via stimulating HEK-Blue hTLR7 cells with TLR7 ligands. Therefore the reporter expression was declined by TLR7 antagonist under the stimulation of a ligand, such as R848 (Resiquimod), for incubation of 20 hrs. The cell culture supernatant SEAP reporter activity was determined using QUANTI-Blue™ kit (Cat. #: rep-qbl, Invivogen, San Diego, Ca, USA) at a wavelength of 640 nm, a detection medium that turns purple or blue in the presence of alkaline phosphatase.
HEK293-Blue-hTLR7 cells were incubated at a density of 250,000˜450,000 cells/mL in a volume of 170 μL in a 96-well plate in Dulbecco's Modified Eagle's medium (DMEM) containing 4.5 g/L glucose, 50 U/mL penicillin, […], […], 2 mM L-glutamine, 10% (v/v) heat-inactivated fetal bovine serum with addition of 20 μL test compound in a serial dilution in the presence of final DMSO at 1% and 10 μL of 20 uM R848 in above DMEM, perform incubation under 37° C. in a CO2 incubator for 20 hrs. Then 20 μL of the supernatant from each well was incubated with 180 μL Quanti-blue substrate solution at 37° C. for 2 hrs and the absorbance was read at 620-655 nm using a spectrophotometer. The signaling pathway that TLR7 activation leads to downstream NF-κB activation has been widely accepted, and therefore similar reporter assay was modified for evaluating TLR7 antagonist.

| pIC50 | Compound |
| --- | --- |
| 8.72 | [2H]c1ccc2c(N3C[C@@H](C)N4Cc5nc(N6CC[C@H]7CNC[C@H]76)ccc5[C@H]4C3)ccc(C#N)c2n1 [Example 10, 5-[(2S,6R)-11-[(3aS,6aS)-3,3a,4,5,6,6a-hexahydro-2H-pyrrolo[2,3-c]pyrrol-1-yl]-6-methyl-4,7,10-triazatricyclo[7.4.0.02,7]trideca-1(9),10,12-trien-4-yl]-2-deuterio-quinoline-8-carbonitrile] |
| 8.80 | [2H]c1ccc2c(N3C[C@@H](C)N4Cc5nc(N6CC[C@H](N)[C@@H](OC)C6)ccc5[C@H]4C3)ccc(C#N)c2n1 [Example 12, 5-[(2S,6R)-11-[(3S,4S)-4-amino-3-methoxy-1-piperidyl]-6-methyl-4,7,10-triazatricyclo[7.4.0.02,7]trideca-1(9),10,12-trien-4-yl]-2-deuterio-quinoline-8-carbonitrile] |
| 8.77 | [2H]c1ccc2c(N3C[C@@H](C)N4Cc5nc(N6C[C@@H]7C[C@H]6CN7)ccc5[C@H]4C3)ccc(C#N)c2n1 [Example 16, 2-Deuterio-5-[(2S,6R)-11-[(1S,4S)-2,5-diazabicyclo[2.2.1]heptan-2-yl]-6-methyl-4,7,10-triazatricyclo[7.4.0.02,7]trideca-1(9),10,12-trien-4-yl]quinoline-8-carbonitrile] |
| 8.89 | [2H]c1ccc2c(N3C[C@@H](C)N4Cc5nc(N6CC[C@](C)(N)C6)ccc5[C@H]4C3)ccc(C#N)c2n1 [Example 8, 5-[(2S,6R)-11-[(3S)-3-amino-3-methyl-pyrrolidin-1-yl]-6-methyl-4,7,10-triazatricyclo[7.4.0.02,7]trideca-1(9),10,12-trien-4-yl]-2-deuterio-quinoline-8-carbonitrile] |
| 8.59 | [2H]c1ccc2c(N3C[C@@H](C)N4Cc5nc(N6CC[C@@H](OC)[C@H](N)C6)ccc5[C@H]4C3)ccc(C#N)c2n1 [Example 15, 5-[(2S,6R)-11-[(3R,4R)-3-amino-4-methoxy-1-piperidyl]-6-methyl-4,7,10-triazatricyclo[7.4.0.02,7]trideca-1(9),10,12-trien-4-yl]-2-deuterio-quinoline-8-carbonitrile] |
| 7.83 | N#Cc1ccc(N2CCN3Cc4nc(N5CCNCC5)ccc4[C@@H]3C2)c2cccnc12 [Example 3A, 5-[(2R)-11-piperazin-1-yl-4,7,10-triazatricyclo[7.4.0.02,7]trideca-1(9),10,12-trien-4-yl]quinoline-8-carbonitrile] |
| 8.57 | [2H]c1ccc2c(N3C[C@@H](C)N4Cc5nc(N6C[C@H]7C[C@@H]6CN7)ccc5[C@H]4C3)ccc(C#N)c2n1 [Example 17, 2-Deuterio-5-[(2S,6R)-11-[(1R,4R)-2,5-diazabicyclo[2.2.1]heptan-2-yl]-6-methyl-4,7,10-triazatricyclo[7.4.0.02,7]trideca-1(9),10,12-trien-4-yl]quinoline-8-carbonitrile] |
| 8.15 | C[C@@H]1CN(c2ccc(C#N)n3nccc23)C[C@@H]2c3ccc(N4C[C@@H]5C[C@H]4CN5)nc3CN12 [Example 21, 4-[(2S,6R)-11-[(1S,4S)-2,5-diazabicyclo[2.2.1]heptan-2-yl]-6-methyl-4,7,10-triazatricyclo[7.4.0.02,7]trideca-1(9),10,12-trien-4-yl]pyrazolo[1,5-a]pyridine-7-carbonitrile] |
| 8.51 | C[C@@H]1CN(c2ccc(C#N)c3ncccc23)C[C@@H]2c3cnc(N4CCNCC4)cc3CN12 [Example 2, 5-[(2S,6R)-6-methyl-11-piperazin-1-yl-4,7,12-triazatricyclo[7.4.0.02,7]trideca-1(9),10,12-trien-4-yl] quinoline-8-carbonitrile] |
| 9.05 | C[C@@H]1CN(c2ccc(C#N)c3ncccc23)C[C@@H]2c3ccc(N4CCNCC4)nc3CN12 [Example 5, 5-[(2S,6R)-6-methyl-11-piperazin-1-yl-4,7,10-triazatricyclo[7.4.0.02,7]trideca-1(9),10,12-trien-4-yl]quinoline-8-carbonitrile] |
| 8.06 | CC1(N)CCN(c2ccc3c(n2)CN2CCN(c4ccc(C#N)c5ncccc45)C[C@@H]32)CC1 [Example 4A, 5-[(2R)-11-(4-amino-4-methyl-1-piperidyl)-4,7,10-triazatricyclo[7.4.0.02,7]trideca-1(9),10,12-trien-4-yl]quinoline-8-carbonitrile] |
| 9.00 | [2H]c1ccc2c(N3C[C@@H](C)N4Cc5nc(O[C@H]6CCNC6)ccc5[C@H]4C3)ccc(C#N)c2n1 [Example 25, 2-Deuterio-5-[(2S,6R)-6-methyl-11-[(3S)-pyrrolidin-3-yl]oxy-4,7,10-triazatricyclo[7.4.0.02,7]trideca-1(9),10,12-trien-4-yl]quinoline-8-carbonitrile] |
| 8.70 | C[C@@H]1CN(c2ccc(C#N)c3ncccc23)C[C@@H]2c3ccc(N4CCCNCC4)nc3CN12 [Example 20, 5-[(2S,6R)-11-(1,4-diazepan-1-yl)-6-methyl-4,7,10-triazatricyclo[7.4.0.02,7]trideca-1(9),10,12-trien-4-yl]quinoline-8-carbonitrile] |
| 8.43 | [2H]c1ccc2c(N3C[C@@H](C)N4Cc5nc(N6CC[C@@H](N)[C@H](OC)C6)ccc5[C@H]4C3)ccc(C#N)c2n1 [Example 11, 5-[(2S,6R)-11-[(3R,4R)-4-amino-3-methoxy-1-piperidyl]-6-methyl-4,7,10-triazatricyclo[7.4.0.02,7]trideca-1(9),10,12-trien-4-yl]-2-deuterio-quinoline-8-carbonitrile] |
| 8.89 | [2H]c1ccc2c(N3C[C@@H](C)N4Cc5nc(N6CCC7(CC6)CNCCO7)ccc5[C@H]4C3)ccc(C#N)c2n1 [Example 18, 2-Deuterio-5-[(2S,6R)-6-methyl-11-(1-oxa-4,9-diazaspiro[5.5]undecan-9-yl)-4,7,10-triazatricyclo[7.4.0.02,7]trideca-1(9),10,12-trien-4-yl]quinoline-8-carbonitrile] |
| 8.47 | [2H]c1ccc2c(N3C[C@@H](C)N4Cc5nc(N6CC[C@H](OC)[C@@H](N)C6)ccc5[C@H]4C3)ccc(C#N)c2n1 [Example 14, 5-[(2S,6R)-11-[(3S,4S)-3-amino-4-methoxy-1-piperidyl]-6-methyl-4,7,10-triazatricyclo[7.4.0.02,7]trideca-1(9),10,12-trien-4-yl]-2-deuterio-quinoline-8-carbonitrile] |
| 8.19 | [2H]c1ccc2c(N3C[C@@H](C)N4Cc5nc(N6CCC7(CNC7)C6)ccc5[C@H]4C3)ccc(C#N)c2n1 [Example 9, 2-Deuterio-5-[(2S,6R)-11-(2,6-diazaspiro[3.4]octan-6-yl)-6-methyl-4,7,10-triazatricyclo[7.4.0.02,7]trideca-1(9),10,12-trien-4-yl]quinoline-8-carbonitrile] |
| 8.77 | [2H]c1ccc2c(N3C[C@@H](C)N4Cc5nc(N6CC[C@H](N)[C@H](OC)C6)ccc5[C@H]4C3)ccc(C#N)c2n1 [Example 13, 5-[(2S,6R)-11-[(3R,4S)-4-amino-3-methoxy-1-piperidyl]-6-methyl-4,7,10-triazatricyclo[7.4.0.02,7]trideca-1(9),10,12-trien-4-yl]-2-deuterio-quinoline-8-carbonitrile] |
